Data: paper PMC12700101 (2025)

Columns and labels:
Test in all cases: fluorescence titration (intramolecular strand displacement)
Details in all cases: 6 mM MgCl2; apparent; 10 mM Tris-HCl pH 7.5, 25 °C
[1] = system: 25-7 ATP ISD Cy3–BHQ-1 (DNA, aptamer) CACCTGGGGGAGTATTGCGGAGGAAGGTTTTTCCAGGTG
[2] = system: 25-7 ATP ISD Cy3–Dab (DNA, aptamer, dabcyl-5-methyl-dC at 40 (3' end)) CACCTGGGGGAGTATTGCGGAGGAAGGTTTTTCCAGGTGC
[3] = system: 25-7 ATP ISD FAM–BHQ-1 (DNA, aptamer) CACCTGGGGGAGTATTGCGGAGGAAGGTTTTTCCAGGTG
[4] = system: 25-7 ATP ISD FAM–Dab (DNA, aptamer, dabcyl-5-methyl-dC at 40 (3' end)) CACCTGGGGGAGTATTGCGGAGGAAGGTTTTTCCAGGTGC

Nc1ncnc2c1ncn2[C@@H]1O[C@H](COP(=O)(O)OP(=O)(O)OP(=O)(O)O)[C@@H](O)[C@H]1O
Kd [1]: 460 ± 65 µM
Kd [2]: 390 ± 83 µM
Kd [3]: 1800 ± 1700 µM
Kd [4]: 1300 ± 600 µM
